{"source": "paper PMC7504387", "about": "“Antimicrobial and Amyloidogenic Activity of Peptides Synthesized on the Basis of the Ribosomal S1 Protein from Thermus Thermophilus” (International Journal of Molecular Sciences, 2020)", "key": {"[1]": {"test": "Thioflavine T fluorescence assay of peptide aggregation", "type": "physicochemical", "conditions": "peptide alone, ThT 0.2 mM, 37 °C", "method": "Fibrils growth was monitored by thioflavine T (ThT) (Sigma-Aldrich, St. Louis, MO, USA) fluorescence. The kinetics of aggregation of peptides was studied using the method of fluorescence spectroscopy. Each kinetics graph was plotted based on the average of several results measured at different time intervals. To facilitate dissolution, all the samples of peptides were pre-dissolved in 100% DMSO, then buffers 50 mM Tris-HCl, pH 7.5, 150 mM NaCl or 20% acetic acid pH 2.0, 150 mM NaCl were added (1% final concentration DMSO) and filtered through […] membranes to remove small aggregates. ThT is the most commonly used fluorescent dye for the following amyloid formation semi-quantitatively in vitro. Free ThT has excitation and emission maxima at ∼350 and ∼450 nm, respectively (after binding to fibrils, the excitation and emission λmax change to ∼450 and ∼482–485 nm, respectively). A stock solution of ThT was prepared at a concentration of 20 mM in 50 mM Tris-HCl, pH 7.5, 150 mM NaCl or 20% acetic acid pH 2.0, 150 mM NaCl, respectively and stored at 4 °C protected from light. The final concentration of ThT was 0.2 mM, and each peptide was 0.2 mM. ThT was present in the sample during the fibril formation reaction. Measurements of ThT fluorescence were performed on a Cary Eclipse fluorescence spectrophotometer (Varian, Mulgrave, Australia) in quartz cells 3 × 3 mm at 37 °C."}, "[2]": {"test": "Transmission electron microscopy of peptide preparations", "type": "physicochemical", "conditions": "peptide alone, negative staining, TEM", "method": "The presence of amyloid fibrils in the test samples was monitored by transmission electron microscopy (TEM). End-point solutions of peptides were collected and the samples were dissolved in the same solution to 0.2 mg/mL before studying with electron microscopy. A formvar-coated copper grid 400 mesh (Electron Microscopy Sciences, Hatfield, PA, USA) was placed on a 10 μL sample. After 5 min absorption, the grids with the preparation were negatively stained for 1.5–2.0 min with 1% (weight/volume) aqueous solution of uranyl acetate. The excess of the staining agent was removed with filter paper. The preparations were analyzed using a JEM-100C (Jeol, Tokyo, Japan) transmission electron microscope at the accelerating voltage of 80 kV. Images were recorded on the Kodak electron image film (SO-163) at nominal magnification of 40,000–60,000."}}, "note": "Where a SMILES comes first, the peptide text is derived from it.", "data": [{"compound": "CC[C@H](C)[C@H](NC(=O)[C@H](CCC(=O)O)NC(=O)[C@@H](NC(=O)[C@H](Cc1ccccc1)NC(=O)[C@@H](NC(=O)CNC(=O)[C@H](Cc1ccccc1)NC(=O)[C@H](CC(=O)O)NC(=O)[C@@H](NC(=O)[C@@H](NC(=O)CNC(=O)CN(C)C(=O)CNC(=O)CNC(=O)[C@H](CCCNC(=N)N)NC(=O)[C@H](CCCNC(=N)N)NC(=O)[C@H](CCCNC(=N)N)NC(=O)[C@H](CCC(N)=O)NC(=O)[C@H](CCCNC(=N)N)NC(=O)[C@H](CCCNC(=N)N)NC(=O)[C@H](CCCCN)NC(=O)[C@H](CCCCN)NC(=O)[C@@H](N)CCCNC(=N)N)C(C)C)[C@@H](C)O)C(C)C)C(C)C)C(=O)O", "note": "[R23I] (HELM PEPTIDE1{R.K.K.R.R.Q.R.R.R.G.G.[Sar].G.V.T.D.F.G.V.F.V.E.I}$$$$V2.0; N-terminus and C-terminus assumed)", "values": [{"measurement": "amyloids in peptide preparation according to ThT fluorescence", "setting": "[1]", "value": "absence of R23I amyloids"}, {"measurement": "aggregate/fibril morphology according to electron microscopy", "setting": "[2]", "value": "aggregates of different sizes and complexes of aggregates are present"}]}]}
